According to publication PMC8608343 (PLoS ONE, 2021):
Converted amounts (≈) assume the structure as drawn.

Key:
[1] = system: Leishmania donovani amastigotes; test: ROS generation in treated amastigotes (H2DCFDA); type: cell-based; conditions: 100, 50 or 25 μM, 24 hrs
Procedure: (§1) The degree of reactive oxygen species (ROS) production in treated promastigote and amastigote cells of L. donovani were assessed using the H2DCFDA (2’,7’-dichlorodihydrofluorescein diacetate) rich fluorescent dye (MAK145 Sigma-Aldrich) ROS detection kit. […] Amoxicillin was used as a positive control for pro-oxidative generation while Vitamin C was used as a positive control for anti-oxidative potential. The treated and untreated cells were then suspended in PBS, washed, and resuspended in PBS, then incubated with the ROS detection master mix for 1 hr as instructed by the protocol. The cells were analyzed for intracellular ROS generation by measuring the fluorescence intensity which is proportional to the ROS production level using the Varioskan Lux Elisa microplate reader (Thermo Fischer Scientific, USA) at a wavelength of 605 nm.

[2] = system: Leishmania donovani promastigotes; test: ROS generation in treated promastigotes (H2DCFDA); type: cell-based; conditions: 100, 50 or 25 μM, 72 hrs
Procedure: as §1

[3] = system: Leishmania donovani amastigotes in RAW macrophage cells; test: Antileishmanial activity against macrophage-amastigotes (MTT assay); type: cell-based; conditions: for Therapeutic Index (TC50/IC50) amastigotes: TC50 RAW / IC50 amastigote; for IC50 (μg/ml) ±SD amastigote / IC50: amastigotes in RAW macrophages, MTT; for IC50: Leishmania donovani, Macrophage, read-out: IC50 (μg/ml) ±SD amastigote
Procedure: The RAW macrophage cells were infected with promastigotes at a density of 1:10 ratio, respectively for 12 hrs and the non-phagocytosed promastigotes and media removed by aspiration. The RAW macrophages cells containing the internalized amastigote cells were treated with the compounds to test for their growth inhibitory potentials as previously described. The 3-(4,5-Dimethylthiazol-2-yl)-2,5-diphenyltetrazolium bromide (MTT) assay was also used to determine the parasite viability. […] was measured with a Varioskan Lux Elisa plate reader at a wavelength of 570 nm.

[4] = system: Leishmania donovani promastigotes; test: Antileishmanial activity against promastigotes (MTT assay); type: cell-based; conditions: for IC50 (μg/ml) ±SD promastigote / IC50: 96 hrs at 25° C, MTT, mean of three experiments; for Therapeutic Index (TC50/IC50) promastigotes: TC50 RAW / IC50 promastigote; for IC50: Leishmania donovani, read-out: IC50 (μg/ml) ±SD promastigote
Description: Amphotericin B was used as a positive control. The 3-(4,5-Dimethylthiazol-2-yl)-2,5-diphenyltetrazolium bromide (MTT) assay was used to determine the parasite viability as previously described.

[5] = system: RAW 264.7 murine macrophage cell line; test: Cytotoxicity against mammalian RAW macrophage cell line (MTT assay); conditions: 48 hrs, 50% cytotoxic concentration
Description: Here, amphotericin B was used as a positive control and the negative control was untreated RAW cell line.

O+ human red blood cells = test: Haemolytic potential; conditions: 2% haematocrit, up to 100 μg/ml
Procedure: The compounds were tested against the O^+ human red blood cells (obtained from the Malaria laboratory of WACCBIP) at a density of 2% haematocrit for their ability to lyse erythrocytes upon incubation. Here, a concentration of up to 100 μg/ml of compounds was used, and the 50% haemolytic concentration (HC50) of the compounds were determined by analysis of dose-response curves as described.

[6] = system: Leishmania donovani promastigotes; test: Morphological and mitochondrion effects by fluorescence microscopy (DAPI, MitoTracker); type: cell-based; conditions: for morphological / mitochondrial changes after 72 hrs: 2x IC50, 72 hrs
Procedure: Their mitochondrial integrity were analyzed using a slightly modified DAPI and Mitotracker dye protocol as described by Amisigo and colleagues.

[7] = system: Leishmania donovani promastigotes; test: Growth kinetics and cytocidal/cytostatic (growth reversibility) assay; type: cell-based; conditions: 1 μg/ml, 120 hrs treatment, then 96 hrs in fresh media
Procedure: The compounds (at 1 μg/ml) were tested for their effects on the growth kinetic pattern against the promastigotes of L. donovani. The parasite cells (2 x 10^5 cells/ml) were incubated at 25° C in the presence of the test compounds in M199 supplemented with 10% FBS. Amphotericin B treated parasites (0–50 μg/ml) were used as the positive control while the untreated promastigotes in medium alone served as the negative control. Viable cells were counted every 24 hrs for a total of 120 hrs as indicated in previous studies.
The cytocidal/cytostatic effect of the test compounds were assessed by analyzing the treated and untreated parasites after 120 hrs of incubation. Cells were washed twice with fresh M199, resuspended in complete M199 media and incubated further for 96 hrs. The viable cells were then counted microscopically.

Compound | ROS generation effect in amastigotes [1] | ROS generation effect in promastigotes [2] | Therapeutic Index (TC50/IC50) amastigotes [3] | IC50 (μg/ml) ±SD amastigote [3] | IC50 (μg/ml) ±SD promastigote [4] | Therapeutic Index (TC50/IC50) promastigotes [4] | TC50 (μg/ml) ±SD RAW [5] | HC50 (O+ human red blood cells) | IC50 [3] | cells with slight enlargement of nuclear and kinetoplast DNA ([6]; 2x IC50, 24 hrs) | morphological / mitochondrial changes after 72 hrs [6] | IC50 [4] | cytocidal/cytostatic effect upon drug withdrawal [7] | morphological / mitochondrial changes after 24 hrs ([6]; 2x IC50, 24 hrs)
CC1(C)S[C@@H]2[C@H](NC(=O)[C@H](N)c3ccc(O)cc3)C(=O)N2[C@H]1C(=O)O [Amoxicillin, reference compound] | pro-oxidative effect | pro-oxidative action |  |  |  |  |  |  |  |  |  |  |  | 
C[C@@H]1[C@H](O)[C@@H](C)/C=C/C=C/C=C/C=C/C=C/C=C/C=C/[C@H](O[C@@H]2O[C@H](C)[C@@H](O)[C@H](N)[C@@H]2O)C[C@@H]2O[C@](O)(C[C@@H](O)C[C@@H](O)[C@H](O)CC[C@@H](O)C[C@@H](O)CC(=O)O[C@H]1C)C[C@H](O)[C@H]2C(=O)O [Amphotericin B, reference compound] | anti-oxidative effect | anti-oxidative effect |  |  |  |  |  |  |  |  |  |  |  | 
O=C(Nc1ccc2c(c1)B(O)OC2)c1ccccc1C(F)(F)F [Compound A03B] | anti-oxidative effect | anti-oxidative effect | 0.90 | 0.20 ± 0.030 µg/mL (≈ 0.623 µM) | 0.44 ± 0.200 µg/mL (≈ 1.37 µM) | 0.41 | 0.18 ± 0.050 µg/mL (≈ 0.561 µM) | >100 µg/mL |  |  |  |  |  | 
O=C(NCc1nnc2n1CCCCC2)c1ccc(-c2ccc(F)cc2)o1 [Compound A06A] |  | anti-oxidative effect | 1.03 |  |  | 2.05 | 0.39 ± 0.05 µg/mL (≈ 1.1 µM) | >100 µg/mL | 0.38 ± 0.01 µg/mL (≈ 1.07 µM) | 50% | most of the few cells left lost their kinetoplast DNA | 0.19 ± 0.008 µg/mL (≈ 0.536 µM) |  | 
Clc1cccc(CO[C@H]2CCc3ccccc3[C@@H]2n2ccnn2)c1 [Compound A07E] |  |  | 0.07 | >6.25 µg/mL | >6.25 µg/mL | 0.07 | 0.41 ± 0.020 µg/mL (≈ 1.21 µM) | >100 µg/mL |  |  |  |  |  | 
Cc1ncc(-c2ccnc(Nc3ccc(S(C)(=O)=O)cc3)n2)n1C(C)C [Compound B03B] | anti-oxidative effect | pro-oxidative action | 0.63 | 0.40 ± 0.050 µg/mL (≈ 1.08 µM) | 0.20 ± 0.040 µg/mL (≈ 0.538 µM) | 1.25 | 0.25 ± 0.040 µg/mL (≈ 0.673 µM) | >100 µg/mL |  |  |  |  | cytocidal effect | 
COc1ccc(C2=NN(C3CCCCCC3)C(=O)[C@@H]3CC=CC[C@H]23)cc1OCCCCOc1ccc(-c2nn[nH]n2)cc1 [Compound C02B] | anti-oxidative effect |  | 2.92 | 0.13 ± 0.004 µg/mL (≈ 0.222 µM) | 0.15 ± 0.130 µg/mL (≈ 0.257 µM) | 2.53 | 0.38 ± 0.010 µg/mL (≈ 0.65 µM) | >100 µg/mL |  |  |  |  |  | 
CO[C@@H](C(=O)N1Cc2[nH]nc(NC(=O)c3ccc(N4CCN(C)CC4)cc3)c2C1)c1ccccc1 [Compound C03B] |  | pro-oxidative action |  | >6.25 µg/mL | 0.62 ± 0.010 µg/mL (≈ 1.31 µM) | 0.34 | 0.21 ± 0.010 µg/mL (≈ 0.443 µM) | >100 µg/mL |  |  |  |  |  | 
O=C(Nc1ccccc1-c1nc2c(C(=O)O)cccc2o1)c1ccccc1 [Compound C06D] | pro-oxidative effect | anti-oxidative effect | 0.13 | 3.0 ± 0.001 µg/mL (≈ 8.37 µM) | >6.25 µg/mL | 0.06 | 0.39 ± 0.010 µg/mL (≈ 1.09 µM) | >100 µg/mL |  |  |  |  | cytocidal effect | 
c1ccc(Oc2ccc(-c3cc(C4CCOCC4)n[nH]3)cc2)cc1 [Compound D02A] |  |  | 454.55 |  |  | 476.19 | >100 µg/mL | >100 µg/mL | 0.22 ± 0.02 µg/mL (≈ 0.687 µM) |  | degeneration of the nuclear and kinetoplast DNA continued | 0.21 ± 0.01 µg/mL (≈ 0.655 µM) |  | degeneration in the mitochondria integrity
N=C(N)c1ccc(-c2cc(-c3ccccc3)on2)cc1 [Compound E02A] |  | anti-oxidative effect | 18.73 |  |  | 344.83 | >100 µg/mL | >100 µg/mL | 5.34 ± 0.01 µg/mL (≈ 20.3 µM) |  | degenerate after 72 hrs | 0.29 ± 0.001 µg/mL (≈ 1.1 µM) |  | did not show marked morphological changes
CC1CCCCN1C(=O)NCCc1coc(-c2ccc(F)cc2)n1 (stereo not drawn) [Compound E05A] |  | anti-oxidative effect | 36.50 | 2.74 ± 0.100 µg/mL (≈ 8.27 µM) | 0.39 ± 0.060 µg/mL (≈ 1.18 µM) | 256.41 | >100 µg/mL | >100 µg/mL |  |  |  |  |  | 
CNC(=O)c1nn(C)c2c1C(C)(C)Cc1cnc(Nc3ccc(N4CCN(C)CC4)cc3)nc1-2 [Compound H02B] | pro-oxidative effect | anti-oxidative effect | 0.02 | >6.25 µg/mL | 0.12 ± 0.150 µg/mL (≈ 0.261 µM) | 0.92 | 0.11 ± 0.010 µg/mL (≈ 0.239 µM) | >100 µg/mL |  |  |  |  | cytocidal effect | 
CS(=O)(=O)c1ccccc1C(=O)N(Cc1ccccc1)c1ccccc1 [Compound H05A] |  | anti-oxidative effect | 0.60 | 0.25 ± 0.040 µg/mL (≈ 0.684 µM) | 0.78 ± 0.170 µg/mL (≈ 2.13 µM) | 0.19 | 0.15 ± 0.030 µg/mL (≈ 0.41 µM) | >100 µg/mL |  |  |  |  |  | 
CCN(CC)CCCCCCNc1cc(OC)cc2c(C)ccnc12 [MMV000063] | anti-oxidative effect |  |  |  |  |  |  |  |  |  |  |  |  | 
CCC(=O)Nc1ccccc1C(=O)Nc1ccccn1 [MMV202553] |  | anti-oxidative effect |  |  |  |  |  |  |  |  |  |  |  | 
CC(C)(C)OC(=O)N1CCN(c2cc(-c3ccc(Oc4ccccc4)cc3)n[nH]2)CC1 [MMV676057] | pro-oxidative effect | anti-oxidative effect |  |  |  |  |  |  |  |  |  |  |  | 
CCOc1ccc2cc(-c3nn(CC4CCN(C)CC4)c4ncnc(N)c34)ccc2c1 [MMV688854] | anti-oxidative effect |  |  |  |  |  |  |  |  |  |  |  |  | 
CCc1nn(C)c(C(=O)NCc2ccc(Oc3ccc(C)cc3)cc2)c1Cl [MMV688934] |  | anti-oxidative effect |  |  |  |  |  |  |  |  |  |  |  | 
CC(C)(C)C(O)C(Oc1ccc(-c2ccccc2)cc1)n1cncn1 (stereo not drawn) [MMV688942] |  | anti-oxidative effect |  |  |  |  |  |  |  |  |  |  |  | 
Nc1ncnc2c1ncn2C[C@@H](O)[C@@H](O)C(=O)O [MMV689255] | anti-oxidative effect |  |  |  |  |  |  |  |  |  |  |  |  | 
O=C1O[C@H]([C@@H](O)CO)C(O)=C1O [Vitamin C, reference compound] | anti-oxidative effect | anti-oxidative effect |  |  |  |  |  |  |  |  |  |  |  | 
